One experiment concerns Trichophyton benhamiae. The experiment is described as follows: In vitro minimum inhibitory concentration against Trichophyton mentagrophytes. The experiment is classed as functional, Arthroderma benhamiae.
For experiment [1], the system named is Plasmodium yoelii. The experiment can be described thus: (§1) Compound was evaluated for uM. Further details: concentration or dose not given beside the values. The settings on record: concentration not given here.
Experiment [2] deals with Plasmodium yoelii. The experiment is described as follows: (§2) Compound was evaluated for uM concentration. The settings on record: concentration not given here.
In experiment [3] the test system is Plasmodium yoelii. The experiment can be described thus: Compound was evaluated for anti-heme polymerase activity in intact erythrocytes infected with drug resistant Plasmodium yoelii at 1.0 uM concentration. Format: cell-based.
The subject of experiment [4] is Plasmodium yoelii. Described as §2. The conditions noted are these: concentration not given here. The source holds these as a separate data set.
The subject of experiment [5] is Plasmodium yoelii. The experiment can be described thus: Compound was evaluated for uM: No effect.
For experiment [6], the system named is Plasmodium yoelii. The experiment is described as §1. The settings on record: concentration not given here.

Converted amounts (≈) assume the structure as drawn. The source made the active and inactive calls.

On to `CCOC(=O)c1cnc2cc(C3CCC(=O)O3)ccc2c1O` (configuration not stated), for which it took 50 µg/mL (≈ 166 µM) to inhibit growth against Trichophyton benhamiae (MIC). Besides, the inhibition (usually the share of the control response that was lost under treatment) with Plasmodium yoelii [1] was found to be 46%.
Take `CCOC(=O)c1cnc2ccc(C3(CCC(=O)OC)CCC(=O)NC3=O)cc2c1O` (configuration not stated): the inhibition is 11% with Plasmodium yoelii [2], 62% in the experiment with Plasmodium yoelii [3], 66% in the experiment on Plasmodium yoelii [1] and 40% in the experiment with Plasmodium yoelii [4]. Also, the MIC (commonly the smallest concentration in the dilution series that meets the test's criterion for growth inhibition) against Trichophyton benhamiae came to 50 µg/mL (≈ 121 µM).
In the case of `CCOC(=O)c1cnc2ccc(C3(CCC(=O)NC(C)CC)CCC(=O)NC3=O)cc2c1O` (configuration not stated), the inhibition was determined as 17% in the experiment on Plasmodium yoelii [2], 68% with Plasmodium yoelii [3], 71% with Plasmodium yoelii [1] and 42% with Plasmodium yoelii [4]. In the experiment with Trichophyton benhamiae, this molecule returned an MIC of 50 µg/mL (≈ 110 µM).
Molecule `CCOC(=O)c1cnc2cc(CO)c(O)cc2c1O` came in with an MIC in the experiment on Trichophyton benhamiae of 50 µg/mL (≈ 190 µM). Besides, in the experiment on Plasmodium yoelii [5], the inhibition result is “inactive”.
Regarding `CCCCNC(=O)CCC1(c2ccc3ncc(C(=O)OCC)c(O)c3c2)CCC(=O)NC1=O` (configuration not stated), in the experiment on Trichophyton benhamiae, the MIC came to 50 µg/mL (≈ 110 µM). Moreover, the inhibition in the experiment with Plasmodium yoelii [1] is 85%.
As for `CCOC(=O)c1cnc2cc(C3=NNC(=O)CC3)ccc2c1O`, the MIC in the experiment with Trichophyton benhamiae was 50 µg/mL (≈ 160 µM). The inhibition with Plasmodium yoelii [1] was 69%.
The like results for `CCOC(=O)c1cnc2ccc(C3(CCC(=O)CCc4ccoc4)CCC(=O)NC3=O)cc2c1O` (configuration not stated) were, in that order, 50 µg/mL (≈ 104 µM) and 82%.
The like results for `CCOC(=O)c1cnc2ccc(C3(CCC(=O)NCCC(C)C)CCC(=O)NC3=O)cc2c1O` (configuration not stated) were, in that order, 50 µg/mL (≈ 106 µM) and 88%.
Regarding `CCN(CC)CCCC(C)Nc1ccnc2cc(Cl)ccc12` (configuration not stated) [CHLOROQUINE], the inhibition in the experiment with Plasmodium yoelii [6] came out at 46%; in the experiment on Plasmodium yoelii [4] it was 47%. Inhibition of growth in the experiment with Trichophyton benhamiae (MIC) required 50 µg/mL (≈ 156 µM).
`CCOC(=O)c1cnc2ccc(C3(CCC(=O)CCc4ccc(OC)c(OC)c4)CCC(=O)NC3=O)cc2c1O` (configuration not stated) returned an MIC against Trichophyton benhamiae of 50 µg/mL (≈ 91.1 µM). This molecule also registered an inhibition in the experiment on Plasmodium yoelii [1] of 86%.

Source of the values: ChEMBL document CHEMBL1150996, “Syntheses and exploration of new biological activities in ethyl 6/7-substituted and 6, 7-disubstituted quinolin-4-one-3-carboxylates” (1996).
